Our source for the EC50 values is patent US20230295115A1, “SUBSTITUTED ISOQUINOLINYLMETHYL AMIDES, ANALOGUES THEREOF, AND METHODS USING SAME” (priority 2020, published 2023).

This assay has as its system HBV rcDNA. Kind of assay: HepDE19 assay with bDNA quantitation of HBV rcDNA. It is filed as cell-based, hepatitis B virus (HBV). The method in brief:
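HepDE19 cells were switched to tetracycline-free medium and exposed to compound (0.5% DMSO final) for 7 days at 37° C. rcDNA was then quantified by bDNA with an HBV-specific probe set. In parallel, viability was read as ATP content (CellTiter-Glo) after 4 days on replicate plates.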

Where [1] appears, read: HepDE19 cells, 7 day incubation, rcDNA measured by Quantigene 2.0 bDNA assay, top concentration 25 μM, read-out: DE-19bDNA EC50.
The mark [2] stands for this setting: Hepatitis B virus, HepDE19, 168 h, HepDE19 cells, 7 day incubation, rcDNA measured by Quantigene 2.0 bDNA assay, top concentration 25 μM, read-out: DE-19bDNA EC50.
[3] abbreviates: Hepatitis B virus, HepDE19, 168 h, read-out: DE-19bDNA EC50 (μM), HepDE19 cells, 7 day incubation, rcDNA measured by Quantigene 2.0 bDNA assay, top concentration 25 μM.

Like-named read-outs stand apart in the source and are kept apart here.

Regarding `CC(c1c[nH]c(=O)c2c(F)c(F)ccc12)N(C)C(=O)C1Nc2ccccc2C1(C)C` (stereo not shown) [Compound 105, N-(1-(7,8-Difluoro-1-oxo-1,2-dihydroisoquinolin-4-yl)ethyl)-N,3,3-trimethylindoline-2-carboxamide], under setting [1], the EC50 was at least 25 µM.

As for `CC(c1c[nH]c(=O)c2c(F)c(F)ccc12)N(C)C(=O)C1Nc2ccccc2C1(C)C` (stereo not shown) [Compound 106, N-(1-(7,8-Difluoro-1-oxo-1,2-dihydroisoquinolin-4-yl)ethyl)-N,3,3-trimethylindoline-2-carboxamide], under setting [1], the EC50 was at least 25 µM.

Regarding `CC(c1c[nH]c(=O)c2c(F)c(F)ccc12)N(C)C(=O)C1Nc2ccccc2C1(C)C` (stereo not shown) [Compound 107, N-(1-(7,8-Difluoro-1-oxo-1,2-dihydroisoquinolin-4-yl)ethyl)-N,3,3-trimethylindoline-2-carboxamide], the EC50 under setting [1] is 16 µM.

For the compound `CC(c1c[nH]c(=O)c2cc(F)c(F)cc12)N(C)C(=O)C1Nc2ccccc2C1(C)C` (stereo not shown) [Compound 112, N-(1-(6,7-Difluoro-1-oxo-1,2-dihydroisoquinolin-4-yl)ethyl)-N,3,3-trimethylindoline-2-carboxamide], the EC50 under setting [2] came out at 21 µM.

On to `CC(c1c[nH]c(=O)c2cc(F)c(F)cc12)N(C)C(=O)C1Nc2ccccc2C1(C)C` (stereo not shown) [Compound 113, N-(1-(6,7-Difluoro-1-oxo-1,2-dihydroisoquinolin-4-yl)ethyl)-N,3,3-trimethylindoline-2-carboxamide], for which, under setting [1], the EC50 is at least 25 µM.

Take `CC(c1c[nH]c(=O)c2cc(F)c(F)cc12)N(C)C(=O)C1Nc2ccccc2C1(C)C` (stereo not shown) [Compound 114, N-(1-(6,7-Difluoro-1-oxo-1,2-dihydroisoquinolin-4-yl)ethyl)-N,3,3-trimethylindoline-2-carboxamide]: the EC50 under setting [1] came out at 16 µM.

On to `CC(c1c[nH]c(=O)c2cc(F)c(F)cc12)N(C)C(=O)C1Nc2ccccc2C1(C)C` (stereo not shown) [Compound 115, N-(1-(6,7-Difluoro-1-oxo-1,2-dihydroisoquinolin-4-yl)ethyl)-N,3,3-trimethylindoline-2-carboxamide], for which the EC50 under setting [1] was 19 µM.

`C[C@H](c1c[nH]c(=O)c2ccccc12)N(C)C(=O)c1ccc(C(F)(F)F)c(F)c1` [Compound 145, (R)-3-Fluoro-N-methyl-N-(1-(1-oxo-1,2-dihydroisoquinolin-4-yl)ethyl)-4-(trifluoromethyl)benzamide]: the EC50 under setting [2] is 0.11 µM.

For the compound `C[C@H](c1c[nH]c(=O)c2ccccc12)N(C)C(=O)c1ccc(Br)cc1` [Compound 146, (R)-4-Bromo-N-methyl-N-(1-(1-oxo-1,2-dihydroisoquinolin-4-yl)ethyl)benzamide], the EC50 under setting [3] is 0.15 µM.

As for `C[C@H](c1c[nH]c(=O)c2ccccc12)N(C)C(=O)c1ccc(C(F)(F)F)cc1` [Compound 147, (R)-N-Methyl-N-(1-(1-oxo-1,2-dihydroisoquinolin-4-yl)ethyl)-4-(trifluoromethyl)benzamide], under setting [2], the EC50 turned out to be 0.16 µM.

Consider `C[C@H](c1c[nH]c(=O)c2ccccc12)N(C)C(=O)c1ccc(Cl)c(F)c1` [Compound 148, (R)-4-Chloro-3-fluoro-N-methyl-N-(1-(1-oxo-1,2-dihydroisoquinolin-4-yl)ethyl)benzamide], for which the EC50 under setting [2] came out at 0.27 µM.

Take `C[C@H](c1c[nH]c(=O)c2ccccc12)N(C)C(=O)c1ccc(F)c(Cl)c1` [Compound 149, (R)-3-Chloro-4-fluoro-N-methyl-N-(1-(1-oxo-1,2-dihydroisoquinolin-4-yl)ethyl)benzamide]: the EC50 under setting [2] stood at 0.68 µM.

In the case of `C[C@H](c1c[nH]c(=O)c2ccccc12)N(C)C(=O)c1ccc(Br)c(F)c1` [Compound 150, (R)-4-Bromo-3-fluoro-N-methyl-N-(1-(1-oxo-1,2-dihydroisoquinolin-4-yl)ethyl)benzamide], under setting [2], the EC50 stood at 0.51 µM.

Turning to `C[C@H](c1c[nH]c(=O)c2ccccc12)N(C)C(=O)Cc1ccc(Cl)cc1` [Compound 151, (R)-2-(4-Chlorophenyl)-N-methyl-N-(1-(1-oxo-1,2-dihydroisoquinolin-4-yl)ethyl)acetamide], under setting [2], the EC50 stood at 3.54 µM.

As to `C[C@H](c1c[nH]c(=O)c2ccccc12)N(C)C(=O)c1cc2ccccn2c1` [Compound 152, (R)-N-Methyl-N-(1-(1-oxo-1,2-dihydroisoquinolin-4-yl)ethyl)indolizine-2-carboxamide], under setting [3], the EC50 is 0.47 µM.

Consider `C[C@H](c1c[nH]c(=O)c2ccccc12)N(C)C(=O)c1cc2cc(F)ccn2c1` [Compound 153, (R)-7-Fluoro-N-methyl-N-(1-(1-oxo-1,2-dihydroisoquinolin-4-yl)ethyl)indolizine-2-carboxamide], for which the EC50 under setting [2] stood at 0.35 µM.

For the compound `C[C@H](c1c[nH]c(=O)c2ccccc12)N(C)C(=O)c1cc2c(Cl)cccn2c1` [Compound 154, (R)-8-Chloro-N-methyl-N-(1-(1-oxo-1,2-dihydroisoquinolin-4-yl)ethyl)indolizine-2-carboxamide], under setting [2], the EC50 was 0.14 µM.

In the case of `C[C@H](c1c[nH]c(=O)c2ccccc12)N(C)C(=O)c1cc2ccccc2[nH]1` [Compound 155, (R)-N-Methyl-N-(1-(1-oxo-1,2-dihydroisoquinolin-4-yl)ethyl)-1H-indole-2-carboxamide], the EC50 under setting [2] turned out to be 0.17 µM.

Take `C[C@H](c1c[nH]c(=O)c2ccccc12)N(C)C(=O)c1cc2c(F)cccc2[nH]1` [Compound 156, (R)-4-Fluoro-N-methyl-N-(1-(1-oxo-1,2-dihydroisoquinolin-4-yl)ethyl)-1H-indole-2-carboxamide]: the EC50 under setting [2] came out at 0.12 µM.

With `C[C@H](c1c[nH]c(=O)c2ccccc12)N(C)C(=O)c1cc2cc(F)ccc2[nH]1` [Compound 157, (R)-5-Fluoro-N-methyl-N-(1-(1-oxo-1,2-dihydroisoquinolin-4-yl)ethyl)-1H-indole-2-carboxamide], the EC50 under setting [3] came to 0.15 µM.

With `C[C@H](c1c[nH]c(=O)c2ccccc12)N(C)C(=O)c1cc2c(F)cc(F)cc2[nH]1` [Compound 158, (R)-4,6-Difluoro-N-methyl-N-(1-(1-oxo-1,2-dihydroisoquinolin-4-yl)ethyl)-1H-indole-2-carboxamide], under setting [2], the EC50 turned out to be 0.13 µM.

`C[C@H](c1c[nH]c(=O)c2ccccc12)N(C)C(=O)c1cc2cc(F)c(F)cc2[nH]1` [Compound 159, (R)-5,6-Difluoro-N-methyl-N-(1-(1-oxo-1,2-dihydroisoquinolin-4-yl)ethyl)-1H-indole-2-carboxamide]: the EC50 under setting [2] is 0.1 µM.

On to `C[C@H](c1c[nH]c(=O)c2ccccc12)N(C)C(=O)[C@@H]1Cc2ccccc2N1` [Compound 160, (S)-N-Methyl-N-((R)-1-(1-oxo-1,2-dihydroisoquinolin-4-yl)ethyl)indoline-2-carboxamide], for which the EC50 under setting [2] was 0.39 µM.

For the compound `CC(c1cn(C)c(=O)c2cc(F)c(F)cc12)N(C)C(=O)[C@@H]1Cc2ccccc2N1` (stereo partly drawn) [Compound 183, (2S)-N-(1-(6,7-difluoro-2-methyl-1-oxo-1,2-dihydroisoquinolin-4-yl)ethyl)-N-methylindoline-2-carboxamide], the EC50 under setting [1] turned out to be 0.07 µM.

With `CC(c1cn(C)c(=O)c2cc(F)c(F)cc12)N(C)C(=O)[C@@H]1Cc2ccccc2N1` (stereo partly drawn) [Compound 184, (2S)-N-(1-(6,7-difluoro-2-methyl-1-oxo-1,2-dihydroisoquinolin-4-yl)ethyl)-N-methylindoline-2-carboxamide], the EC50 under setting [1] turned out to be 4.2 µM.

Consider `C[C@H](c1c[nH]c(=O)c2cc(F)c(F)cc12)N(C)C(=O)c1ccc2cccn2c1` [Compound 185, (R)-N-(1-(6,7-Difluoro-1-oxo-1,2-dihydroisoquinolin-4-yl)ethyl)-N-methylindolizine-6-carboxamide], for which, under setting [3], the EC50 came out at 0.04 µM.

`C[C@H](c1c[nH]c(=O)c2cc(F)c(F)cc12)N(C)C(=O)c1cc2sc(Cl)cc2[nH]1` [Compound 186, (R)-2-Chloro-N-(1-(6,7-difluoro-1-oxo-1,2-dihydroisoquinolin-4-yl)ethyl)-N-methyl-4H-thieno[3,2-b]pyrrole-5-carboxamide]: the EC50 under setting [3] is 0.03 µM.

`C[C@H](c1c[nH]c(=O)c2cc(F)c(F)cc12)N(C)C(=O)c1ccn2cccc2c1` [Compound 187, (R)-N-(1-(6,7-Difluoro-1-oxo-1,2-dihydroisoquinolin-4-yl)ethyl)-N-methylindolizine-7-carboxamide]: the EC50 under setting [3] was found to be 0.18 µM.
